Columns and labels:
CYP3A4 = CYP3A4 (Homo sapiens, UniProt P08684)
Procedure: Both the curcumin-FK506 and TZDM-SLF bifunctional compounds include a ligand to the pertidyl-prolyl isomerase FKBP. Therefore, FKBP12 was used in the assay as the PMP. A control was also performed with FK506 in the presence and absence of FKBP12.
The coding sequence of human FKBP12 was subcloned into a pGEX2t vector. Bacteria transformed with this vector produce a fusion protein between FKBP12 and glutathione S-transferase (GST). FKBP12 is purified by standard methods and the GST tag enzymatically removed. Pure FKBP was flash-frozen, and stored at −80° C. at 10-100 micromolar in HEPES or phosphate buffer pH 7.0.
The CYP3A4 compound and the green substrate VIVID® DBOMF (Invitrogen) were used in the assay with the recombinant human FKBP12 (rhFKBP12) and one of the bifunctional compounds. […] Increasing concentrations of the bifunctional compound, curcumin-FK506, were added to this system, either in the presence (open symbols) or absence (closed symbols) of rhFKBP12 at one micromolar.
However, it has never been tested in an in vitro screen. Therefore, rhFKBP12 and FK506 were added to the VIVID assay. The open symbols are FK506+FKBP and the filled symbols are FK506 alone.

[1] = stated as known; cited from earlier work
[2] = biological target: T1, cytochrome p450 3A4 (CYP3A4) (Homo sapiens, UniProt P08684); test: Cytochrome P450 susceptibility assay using whole cells (FKBP-expressing CHO cells in the VIVID assay); assay type: in vitro ADME; conditions: FKBP-expressing Chinese hamster ovary cells (CHO) added, FIG. 4
T1 construct: purchased Invitrogen
T1 sequence (P08684 whole entry): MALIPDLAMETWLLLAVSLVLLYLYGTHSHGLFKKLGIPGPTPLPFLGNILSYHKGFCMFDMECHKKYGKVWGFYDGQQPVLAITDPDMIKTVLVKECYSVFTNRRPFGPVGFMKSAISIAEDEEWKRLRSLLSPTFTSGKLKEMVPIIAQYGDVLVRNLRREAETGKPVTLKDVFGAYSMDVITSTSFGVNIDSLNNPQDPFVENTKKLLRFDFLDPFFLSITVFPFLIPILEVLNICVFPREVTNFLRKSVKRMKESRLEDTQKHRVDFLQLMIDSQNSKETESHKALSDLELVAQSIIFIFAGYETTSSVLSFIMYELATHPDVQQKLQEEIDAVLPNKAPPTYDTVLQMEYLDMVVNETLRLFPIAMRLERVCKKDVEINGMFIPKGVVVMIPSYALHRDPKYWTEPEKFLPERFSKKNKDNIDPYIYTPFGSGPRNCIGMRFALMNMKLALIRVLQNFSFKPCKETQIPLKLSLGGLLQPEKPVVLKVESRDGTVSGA
Procedure: In addition to using rhFKBP12 or other recombinant proteins, whole cells were also tested using the cytochrome P450 assay platform. […] Unconjugated curcumin (triangle) was used as a negative control.

COS-1 cells = test: Fluorescence microscopy of cellular distribution in cultured COS-1 cells; assay type: cell-based; conditions: FIG. 3
Procedure: Cellular and tissue distribution of a bifunctional molecule consisting of a FKBP-binding group was also assessed. Such re-distribution is due to changes in the physicochemical characteristics of the new molecule and also is driven by specific, high-affinity interactions with FKBP. For example, the distribution of TZDM and TZDM-SLF were studied in cultured COS-1 cells (see FIG. 3). The intrinsic fluorescence of TZDM was used was a convenient handle for following drug distribution. […] Thus, sequestering FKBP-binding drugs both reduces accessibility to P450 enzymes and also alters the distribution of the bifunctional compounds.

CYP3A4, sequence (P08684 whole entry): as above

## C=CC[C@@H]1/C=C(\C)C[C@H](C)C[C@H](OC)[C@H]2O[C@@](O)(C(=O)C(=O)N3CCCC[C@H]3C(=O)O[C@H](/C(C)=C/[C@@H]3CC[C@@H](O)[C@H](OC)C3)[C@H](C)[C@@H](O)CC1=O)[C@H](C)C[C@@H]2OC [FK506]
CYP3A4; human
  protection from metabolism by CYP on binding the protein partner FKBP: protected from P450 metabolism by the presence of the protein partner
[1]
  protection from degradation in whole animals: known to be protected from degradation in whole animals

## COc1cc(/C=C/C(=O)C(C(=O)/C=C/c2ccc(O)c(OC)c2)c2ccc(NC(=O)OCC[C@@H]3/C=C(\C)C[C@H](C)C[C@H](OC)[C@H]4O[C@@](O)(C(=O)C(=O)N5CCCC[C@H]5C(=O)OC(/C(C)=C/[C@@H]5CC[C@@H](O)[C@H](OC)C5)[C@H](C)C(O)CC3=O)[C@H](C)C[C@@H]4OC)cc2)ccc1O (stereo partly drawn) [curcumin-FK506]
CYP3A4
  fluorescence of the reaction in the presence of rhFKBP12 compared to the reaction lacking rhFKBP12: higher
[2]
  protection from P450 metabolism by addition of FKBP-expressing cells: protected by addition of the FKBP-expressing cells

## COc1cc(/C=C/C(=O)CC(=O)/C=C/c2ccc(O)c(OC)c2)ccc1O [curcumin]
[2]
  protection from P450 metabolism by addition of FKBP-expressing cells: less protected

## CN(C)c1ccc(-c2nc3ccc(I)cc3s2)cc1 [TZDM]
COS-1 cells
  cellular distribution by intrinsic fluorescence: resides in membranes

From patent publication US20070054348A1, “Methods of screening bifunctional molecules for modulated pharmacokinetic properties” (priority 2005, published 2007)
